# pIC50: −log10 of the molar value.
# Tested on: aorta rings
# Assay: Vasorelaxant effect in vitro (phenylephrine-contracted rabbit aorta rings)
# Set-up: species or system Rabbits
# Settings: Oryctolagus cuniculus, contraction induced by phenylephrine, 37° C., 0.1% DMSO, read-out: IC50 (concentration necessary to reduce the level of contraction by 50%)
# Method: Rabbits are stunned by a blow to the back of the neck and are exsanguinated. The aorta is removed, freed of adherent tissue, divided into rings 1.5 mm wide and placed singly in 5 ml organ baths with carbogen-gassed Krebs-Henseleit solution of the following composition (in each case mM): NaCl: 119; KCl: 4.8; CaCl2×2H2O: 1; MgSO4×7H2O: 1.4; KH2PO4: 1.2; NaHCO3: 25; glucose: 10, under an initial tension at 37° C. The force of contraction is detected with Statham UC2 cells, amplified and digitized via A/D converters (DAS-1802 HC, Keithley Instruments Munich), and recorded in parallel on chart recorders. A contraction is induced by adding phenylephrine to the bath cumulatively in increasing concentration. After several control cycles, the substance to be investigated is added in each further run in increasing dosage each time, and the level of contraction is compared with the level of contraction achieved in the last preceding run. The concentration necessary to reduce the level of contraction by 50% (IC50) is calculated therefrom. The standard application volume is 5 μl, and the DMSO content in the bath solution corresponds to 0.1%.
smiles,measurement,value
"Nc1nc(N)nc(-c2nn(Cc3ccccc3F)c3nccn23)n1 [Example 1, 6-[1-(2-Fluorobenzyl)-1H-imidazo[2,1-c][1,2,4]triazol-3-yl]-1,3,5-triazine-2,4-diamine]",pIC50,5.21

# Reference: patent US8114400B2, “Aza-bicyclic compounds and their use as stimulators of soluble guanylate cyclase” (Bayer Pharma Aktiengesellschaft, priority 2006, dated 2012)
